# Measurements reported in patent publication US20230225985A1, “TERPE[…] AND THEIR USE” (Phytotherapeutix Ltd., priority 2020, published 2023).
# “And” between values parts separate entries of the source, which are not always exact repeats. Identical values can stand only once. Like-named read-outs stand apart in the source and are kept apart here.
# What was measured:
# Type in all cases: in vivo, Mouse (ICR:CD-1)
# [1] = test system: PTZ mouse model of seizures; test: PTZ-induced seizures study; settings: for Protection from clonic seizures (PTZ) vs vehicle / Protection from tonic hindlimb seizures (PTZ) vs vehicle: 200 mg/kg IP, PTZ 100 mg/kg i.p.
# Experimental: Route(s) of administration: Intraperitoneal (i.p.) and per oral (p.o.) (Diazepam)
# (§1) Vehicle for the test compounds: 1:1:18 ethanol:cremophor (Kolliphor) EL:0.9% saline
# Vehicle for diazepam: 0.5% MC, 0.1% Tween 80 in water
# Interval between dose and evaluation: 30 min for test articles and diazepam, 60 min for CBD
# Mice were acclimated to the procedure room for at least 30 minutes. Pentylenetetrazole (PTZ; SigmaAldrich) was formulated in water to a concentration of 20 mg/ml. Injections of PTZ were made at a volume of 5 ml/kg to produce a final dose of 100 mg/kg. PTZ injections were i.p. Diazepam was formulated at a concentration of 2 mg/ml and administered at volume of 10 ml/kg to produce a final dose of 20 mg/kg. Time to initial myoclonic and tonic hindlimb extensor response was measured. A 10-min maximum latency to seizure was imposed.
# (§2) The data was expressed as mean+SEM. Statistical analysis using one-way ANOVA with post-hoc Fisher's LSD test was used to determine statistical significance compared to the vehicle-treated animals.
# [2] = test system: MES mouse model of seizures; test: Maximal Electroshock (MES) seizure study; settings: for Effect in MES study (latency to tonic hindlimb seizure) vs vehicle: 200 mg/kg IP
# Experimental: Route(s) of administration: Intraperitoneal (i.p.) and per oral (p.o.)
# as §1
# Vehicle for phenytoin: 0.5% MC in water
# Dose Levels: 100-200 mg/kg (Table 2), Phenytoin 60 mg/kg
# Interval between dose and evaluation: 30 min for test articles and phenytoin, 60 min for CBD
# Animals were administered vehicle, phenytoin, CBD or test compounds and gross behavioural observations were done for 30 minutes. Proparacaine hydrochloride ophthalmic solution (Butler AHS, Dublin, Ohio) was applied approximately 10 minutes prior to testing to numb the eyes. Thirty to sixty minutes after administration of vehicle, phenytoin, CBD or test compounds, 0.9% saline solution (sodium chloride in water) was applied to both eyes and electro-convulsions were produced by an alternating current delivered via corneal electrodes by a Rodent Shocker generator at a frequency of 60 Hz (Harvard Apparatus, Holliston, Mass.). Parameters for the ICR:CD1 mice were 0.2 s stimulus duration at an intensity of 25 mA. The criterion for seizure occurrence were presence of a tonic hind limb extension, defined as extension exceeding a 90-degree angle with the plane of the body. […] Any seizure activity (i.e. clonic seizures defined as rapid spasms or jerky movements of the limbs) prior to tonic hind limb seizure were recorded as presence of seizure (noted as 1-yes, 0-no). After seizure exhibition or 20-second timeout, mice were euthanized via cervical dislocation.
# as §2
# [3] = PK study: plasma levels after i.p. administration (LC/MS/MS); settings: 100 mg/kg i.p.; for Time of maximal concentration in plasma after the injection: sampling at 30, 60, 120 min; for concentration at 30 min / concentration at 60 min / concentration at 120 min: CD-1, mouse, plasma, intraperitoneal, 100 mg/kg
# Experimental: Route(s) of administration: Intraperitoneal (i.p.)
# Vehicle for the test compounds and CBD: 1:1:18 ethanol:cremophor (Kolliphor) EL:0.9% saline
# IP administration: 0.5 h (30 min), 1 h, 2 h,
# For testing of each compound, six CD-1 mice were divided into 2 groups of 3. Animals were administered test agents via i.p. route and blood collected at 30, 60 and 120 min, administration as outlined in Table 1. Blood samples were collected in EDTA-coated microfuge tubes, inverted and placed on an ice pack prior to centrifugation and storage at −70° C. Samples were extracted using an acetonitrile/protein precipitation method and levels of test agent analysed by LC/MS/MS.
# Bioanalytical detection method was developed using an LC/MS/MS (ABI 5000 or 5500). Standard curves of the test agent were prepared in an appropriate biological matrix (plasma). Levels of test article was measured in plasma as per the developed method.
# Levels were determined by extrapolating the concentration from a standard curve using linear regression analysis. Method development and bioanalysis was performed by a partner company, Keystone Bioanalytical (North Wales, Pa., US).
# [4] = 30 min pretreatment, listed as (−)-trans CBD-PET
# [5] = 30 min pretreatment, listed as CBD-PET
# [6] = 30 min pretreatment, listed as (−)-trans CBD-PET-OH
# [7] = 30 min pretreatment, listed as CBD-PET-OH
smiles,measurement,setting,value
"CN1C(=O)CN=C(c2ccccc2)c2cc(Cl)ccc21 [diazepam, reference compound]","Protection from the seizures (PTZ, clonic and tonic hindlimb)","[1]; 30 mg/kg PO (Table 3), 30 min pretreatment, positive control",100%
"C=C(C)[C@@H]1CCC(C)=C[C@H]1c1c(O)cc(CCCCC)cc1O [Cannabidiol, reference compound]",Effect in MES model vs vehicle,"[2]; 100 mg/kg IP, 60 min prior to MES",did not produce a significant effect
same,Effect in PTZ model vs vehicle,"[1]; 100 mg/kg IP, 60 min prior to PTZ",did not produce a significant effect
"C=C(C)[C@@H]1CCC(C)=C[C@H]1c1c(O)cc(CCc2ccccc2)cc1O [(−)-trans-CBD-PET, (1′R,2′R)-5′-methyl-4-phenethyl-2′-(prop-1-ene-2-yl)-1′,2′,3′,4′-tetrahydro-[1,1′-biphenyl]-2,6-diol]",Effect in MES study (latency to tonic hindlimb seizure) vs vehicle,[2]; 30 min pretreatment,inactive
same,Protection from clonic seizures (PTZ) vs vehicle,[1]; [4],significant protection
same,Protection from tonic hindlimb seizures (PTZ) vs vehicle,[1]; [4],significant effect
same,Protection from clonic seizures (PTZ) vs vehicle,[1]; [5],activity against both clonic and tonic seizures
same,Protection from tonic hindlimb seizures (PTZ) vs vehicle,[1]; [5],activity against both clonic and tonic seizures
same,(—)-trans-CBD-PET in plasma,"[3]; 30 min, individual animals",3519.2 ng/mL and 3872.3 ng/mL
same,(—)-trans-CBD-PET in plasma,"[3]; 60 min, individual animals",2729.5 ng/mL and 1728.7 ng/mL
same,(—)-trans-CBD-PET in plasma,"[3]; 120 min, individual animals",2188.6 ng/mL and 770.3 ng/mL and 982.7 ng/mL
same,Time of maximal concentration in plasma after the injection,[3],30 min
same,concentration at 30 min,"[3]; 30 min, average of 3 mice, read-out: Average (ng/ml), (—)-trans-CBD-PET in plasma",3810 ng/mL
same,concentration at 30 min,"[3]; 30 min, individual animals, read-out: (—)-trans-CBD-PET in plasma",4030 ng/mL
same,concentration at 60 min,"[3]; 60 min, average of 3 mice, read-out: Average (ng/ml), (—)-trans-CBD-PET in plasma",2140 ng/mL
same,concentration at 60 min,"[3]; 60 min, individual animals, read-out: (—)-trans-CBD-PET in plasma",1960 ng/mL
same,concentration at 120 min,"[3]; 120 min, average of 3 mice, read-out: Average (ng/ml), (—)-trans-CBD-PET in plasma",1310 ng/mL
"O=C1NC(=O)C(c2ccccc2)(c2ccccc2)N1 [phenytoin, reference compound]",Protection from the seizures (MES),"[2]; 60 mg/kg PO, 30 min pretreatment, positive control",100%
"C=C(C)[C@@H]1CCC(C)=C[C@H]1c1c(O)cc(CCc2ccc(O)cc2)cc1O [(−)-trans-CBD-PET-OH, (1′R,2′R)-4-(4-hydroxyphenethyl)-5′-methyl-2′-(prop-1-ene-2-yl)-1′,2′,3′,4′-tetrahydro-[1,1′-biphenyl]-2,6-diol]",Effect in MES study (latency to tonic hindlimb seizure) vs vehicle,[2]; [6],significantly different from vehicle
same,Effect in MES study (latency to tonic hindlimb seizure) vs vehicle,[2]; [7],effective
same,Protection from tonic hindlimb seizures (PTZ) vs vehicle,[1]; [6],significant effect
same,Protection from tonic hindlimb seizures (PTZ) vs vehicle,[1]; [7],particularly effective against tonic seizures
same,(—)-trans-CBD-PET-OH in plasma,"[3]; 30 min, individual animals",8897.4 ng/mL and 8936.2 ng/mL
same,(—)-trans-CBD-PET-OH in plasma,"[3]; 60 min, individual animals",8877.8 ng/mL and 8055.5 ng/mL
same,(—)-trans-CBD-PET-OH in plasma,"[3]; 120 min, individual animals",2831.1 ng/mL and 3274.9 ng/mL
same,Time of maximal concentration in plasma after the injection,[3],30 min
same,concentration at 30 min,"[3]; 30 min, average of 3 mice, read-out: Average (ng/ml), (—)-trans-CBD-PET-OH in plasma",8120 ng/mL
same,concentration at 30 min,"[3]; 30 min, individual animals, read-out: (—)-trans-CBD-PET-OH in plasma",6520 ng/mL
same,concentration at 60 min,"[3]; 60 min, average of 3 mice, read-out: Average (ng/ml), (—)-trans-CBD-PET-OH in plasma",7920 ng/mL
same,concentration at 60 min,"[3]; 60 min, individual animals, read-out: (—)-trans-CBD-PET-OH in plasma",6840 ng/mL
same,concentration at 120 min,"[3]; 120 min, average of 3 mice, read-out: Average (ng/ml), (—)-trans-CBD-PET-OH in plasma",3460 ng/mL
same,concentration at 120 min,"[3]; 120 min, individual animals, read-out: (—)-trans-CBD-PET-OH in plasma",4290 ng/mL
